In one data set the test system is S. aureus. Nature of the data set: pH-dependent MIC determination. It counts as cell-based. To be noted: for MIC: Staphylococcus aureus. As to the method: MICs were determined using a standard serial broth microdilution technique according to the CLSI guidelines. Briefly, bacterial strains were inoculated onto MHBII agar plates and were grown overnight at 37 °C. Next, 3 individual colonies from each strain were inoculated into 1 mL MHBII medium and propagated at 37 °C, 250 rpm overnight. In the cases of Enterococcus and Streptococcus sp., cells were plated to BHI agar plates, and BHI broth was used to determine MICs. […] Following dilutions, each well was seeded with 5×10^4 bacterial cells. All measurements were performed in 3 parallel replicates and to avoid possible edge effects in microwell plates, side rows (A and H) were filled with sterile medium. Following inoculations, plates were covered with lids and wrapped in polyethylene plastic bags to minimize evaporation but allow for O2 transfer. Plates were incubated at 37 °C under continuous shaking at 150 rpm for 18 hours. After incubation, OD600 of each well was measured using a BioTek Synergy 2 microplate reader.

The subject of data set [1] is S. aureus clinical isolates. Nature of the data set: microbe, parasite or virus in culture. The data set is classed as cell-based. To be noted: Staphylococcus aureus.
For data set [2], the system named is S. aureus ATCC 700699 VISA. Nature of the data set: Time-dependent killing. It counts as cell-based. To be noted: for Time-kill bacterial count: 10xMIC; for Colony numbers: time-kill raw counts, Samples 1-3. The protocol: Time-dependent killing experiments were performed as previously. S. aureus ATCC 700699 VISA cells were inoculated to MHBII agar plates and grown overnight at 37 °C. Next, 3 independent stationer-phase starter cultures were grown at 37 °C, 250 rpm overnight, in 3 × 1 mL MHBII broth. Next, 100-fold diluted cultures were prepared from each in 20 mL fresh MHBII medium and grown at 37 °C, 250 rpm until early exponential phase (OD600 = 0.3–0.4; i.e., 5 × 10^5 cells/mL). […] Cells were treated with antibiotics in Erlenmeyer flasks at 37 °C, 150 rpm for 48 hours. […] Next, 50 μL from each dilution were plated on MHBII agar plates, and plates were incubated overnight at 37 °C to calculate CFU per mL.

The next data set concerns human red blood cells. Nature of the data set: Haemolysis analysis. Conditions: human red blood cells, 50 µg/mL, positive control.
Data set [3] concerns S. aureus USA300 (MRSA) BAA1556, S. aureus (VRSA) ECL2963646, S. aureus Mu50 (VISA) ATCC 700699. Nature of the data set: S. aureus dermal infection model. The data set is classed as in vivo, ICR mice. Conditions: 2% treatment, individual animals. As to the method:
The testing strains, S. aureus USA300 (MRSA) BAA1556, S. aureus (VRSA) ECL2963646, and S. aureus Mu50 (VISA) ATCC 700699 were obtained from frozen stocks and thawed at room temperature. Next, an aliquot of 0.2 mL from each stock was transferred to 20 mL BHI broth and incubated at 37 °C with shaking (120 rpm) for 8 hours. Cells in 20 mL culture were pelleted by centrifugation, 3,500g for 15 minutes, and then resuspended in 10 mL cold PBS, then cells were diluted in PBS to obtain the inoculum sizes of 1×10^5 or 1× 10^6 CFU/mL, based on the testing strain’s virulence. In all cases, the actual colony counts were determined by plating dilutions in at least 3 replicates onto MHBII agar plates followed by 24 hours’ incubation and colony counting.
For dermal infections, groups of 5 female ICR mice weighing 24 ± 4 g, provided by BioLasco Taiwan (under a Charles River Laboratories Technology Licensee), were used. Animals were acclimated for 3 days prior to use and were confirmed to be in good health. Prior to infection, animals were anesthetized with etomidate-lipuro emulsion (20 mg /10 mL) at 20 mg/kg by IV injection, and then the fur on the back was removed by an electric shaver, and the epidermal layer was disrupted with an abrasive paper according to the protocol developed by Kugelberg and colleagues. Mice were inoculated topically on the wound area with testing strain suspension, 5 μL/mouse. The target inoculation densities were 1×10^5 or 1× 10^6 CFU/mL, based on the corresponding strain’s virulence. Following infection, animals were housed separately. […] Test articles were administered topically (20 μL/mouse) twice daily. One no-treatment group was euthanized at 1 hour after infection for initial bacterial counts, and the other treatment groups were dosed twice daily with the test compounds and sacrificed either at 25 hours or at 73 hours postinfection. Animals were euthanized with CO2 asphyxiation and the infected skin, a 2 cm^2 area, was excised. The skin samples of the wound infection (around 2 cm^2 areas) were then homogenized in 1 mL PBS (pH 7.4) with a polytron homogenizer. A 0.1 mL aliquot of each homogenate was used for serial 10-fold dilutions and plated onto MHBII agar plates for bacterial enumeration. Statistical significance (P <0.05) was assessed with 1-way ANOVA followed by Dunnett’s method. A significant (P <0.05) decrease in the bacterial counts of the treated animals compared with the vehicle control group was considered significant antimicrobial activity.

Setting [4] is: S. aureus ATCC 43300 (MRSA), pH 5.5.
Where [5] appears, read: S. aureus ATCC 43300 (MRSA), pH 7.3.
The mark [6] stands for this setting: S. aureus ATCC 700699 (VISA), pH 5.5.
Setting [7] is: S. aureus ATCC 700699 (VISA), pH 7.3.

≈ marks a conversion by molar mass, not a printed value. Where “and” joins values, the source holds several entries; their conditions need not be identical. Equal values may be shown once.

Description for human red blood cells: Next, 600 μl of this EDTA-treated blood was washed in TBS buffer (10 mM TRIS, 150 mM NaCl [pH 7.2]) and centrifuged at 1,500 g for 1 minute until the supernatant became colorless. The aliquot of the final pellet (200 μL) was diluted to 5 mL with TBS buffer. […] Next, 100 μL of red blood cell suspension was pipetted into sterile Eppendorf tubes together with 100 μL of 2-fold serial dilution of the compounds (final concentration ranged between 100 μg/mL–0.1 μg/mL in a final volume of 200 μL). The plate was incubated for one hour at 37 °C followed by centrifugation at 1,500 g for 1 minute to sediment all red blood cells. Next, all supernatants were subjected to LDH and Haemolysis-Icterus-Lipaemia (HIL) index determination on a Roche Modular P800 analyzer according to the manufacturer’s instructions. After completion of this step the rest of the supernatants were transferred to sterile 96-well plates for the measurement of their optical density at 560-nm wavelength (in a Multiskan FC microplate reader, Thermo Scientific). Melittin (Bachem) at a concentration of 50 μg/mL, and TBS and 10% DMSO/TBS were served as positive (100% hemolysis) and negative (no hemolysis) controls, respectively.

For `Nc1nc(-n2cc(C(=O)O)c(=O)c3cc(F)c(N4CC(O)C4)c(Cl)c32)c(F)cc1F` [Delafloxacin], the MIC came out at 0.0005 µg/mL in the data set on S. aureus (setting [4]), 0.004 µg/mL with S. aureus (setting [5]), 0.032 µg/mL in the data set with S. aureus (setting [6]) and 1 µg/mL with S. aureus (setting [7]).
For the compound `CN[C@H](CC(C)C)C(=O)N[C@H]1C(=O)N[C@@H](CC(N)=O)C(=O)N[C@H]2C(=O)N[C@H]3C(=O)N[C@H](C(=O)N[C@H](C(=O)O)c4cc(O)cc(O)c4-c4cc3ccc4O)[C@H](O)c3ccc(c(Cl)c3)Oc3cc2cc(c3O[C@@H]2O[C@H](CO)[C@@H](O)[C@H](O)[C@H]2O[C@H]2C[C@](C)(N)[C@H](O)[C@H](C)O2)Oc2ccc(cc2Cl)[C@H]1O` [Vancomycin], the MIC in data set [1] (ATCC 29213 / MSSA) amounted to 1 µg/mL (≈ 0.69 µM); in data set [1] (MRSA), 1 µg/mL (≈ 0.69 µM); in data set [1] (MRSA / NRS 3 / VISA), 8 µg/mL (≈ 5.52 µM); in data set [1] (MRSA / NRS 4 / VISA), 4 µg/mL (≈ 2.76 µM); in data set [1] (MRSA / NRS 18 / VISA), 8 µg/mL (≈ 5.52 µM); in data set [1] (MRSA / NRS 19 / VISA), 4 µg/mL (≈ 2.76 µM). Moreover, the MIC came to 4 µg/mL (≈ 2.76 µM) in data set [1] (MRSA / NRS 21 / VISA); 8 µg/mL (≈ 5.52 µM) in data set [1] (MRSA / NRS 22 / USA600 / VISA); 4 µg/mL (≈ 2.76 µM) in data set [1] (MRSA / NRS 23 / VISA); 8 µg/mL (≈ 5.52 µM) in data set [1] (MRSA / NRS 24 / VISA); 2 µg/mL (≈ 1.38 µM) in data set [1] (MRSA / NRS 26); 4 µg/mL (≈ 2.76 µM) in data set [1] (MRSA / NRS 27 / VISA). In addition, the MIC in data set [1] (MRSA / NRS 29 / VISA) is 4 µg/mL (≈ 2.76 µM); in data set [1] (MRSA / NRS 37 / VISA) it was 4 µg/mL (≈ 2.76 µM); in data set [1] (MRSA / NRS 54) it was 2 µg/mL (≈ 1.38 µM); in data set [1] (MRSA / NRS 56 / VISA), 4 µg/mL (≈ 2.76 µM); in data set [1] (MRSA / USA100 / VRSA), above 64 µg/mL; in data set [1] (MRSA / USA800 / VRSA) it was above 64 µg/mL. Also, the MIC in data set [1] (MSSA) worked out at 1 µg/mL (≈ 0.69 µM); in data set [1] (MSSA / NRS 12 / VISA) it was 4 µg/mL (≈ 2.76 µM); in data set [1] (MSSA / NRS 13 / VISA) it was 4 µg/mL (≈ 2.76 µM); in data set [1] (MSSA / NRS 14 / VISA), 4 µg/mL (≈ 2.76 µM); in data set [1] (MSSA / NRS 17 / VISA), 8 µg/mL (≈ 5.52 µM); in data set [1] (MSSA / NRS 28 / VISA) it was 4 µg/mL (≈ 2.76 µM). For the same compound, the MIC in data set [1] (MSSA / NRS 52) is 2 µg/mL (≈ 1.38 µM); in data set [1] (MSSA / USA100 / VRSA), above 64 µg/mL; with S. aureus (setting [4]), 2 µg/mL; with S. aureus (setting [5]), 1 µg/mL; in the data set with S. aureus (setting [6]), 8 µg/mL; with S. aureus (setting [7]) it was 8 µg/mL. Besides, the Time-kill bacterial count in data set [2] (time 0 hour) is 2.80E+05; in data set [2] (time 3 hour), 8.40E+04; in data set [2] (time 6 hour) it was 3.30E+04; in data set [2] (time 12 hour), 1.30E+03; in data set [2] (time 18 hour) it was 3.80E+03; in data set [2] (time 24 hour), 1.60E+02. Moreover, the Time-kill bacterial count in data set [2] (time 48 hour) is given as 5.30E+01. Further, the Colony numbers in data set [2] (time 0 h, Dilution 100) is 145 and 132 and 137; in data set [2] (time 3 h, Dilution 100), 48 and 36 and 42; in data set [2] (time 6 h, Dilution 100) it was 20 and 13 and 16; in data set [2] (time 12 h, Dilution 10) it was 8 and 7 and 4; in data set [2] (time 18 h, Dilution 1), 231 and 176 and 163; in data set [2] (time 24 h, Dilution 0.5) it was 17 and 12 and 18. In addition, the “potency on shift from pH 7.3 to 5.5” value in the data set on S. aureus (S. aureus, in words) is “unaffected”.
For the compound Melittin [reference compound], in the data set with human red blood cells, the “Hemolytic Index” value is listed as 248 and the LDH activity was 525 Unit/mL.
Regarding `C/C(=C\C(=O)OCCCCCCCCC(=O)O)C[C@@H]1OC[C@H](C[C@@H]2O[C@H]2[C@@H](C)[C@H](C)O)[C@@H](O)[C@H]1O` [mupirocin, reference compound], the “Log CFU/Skin” value in data set [3] (Staphylococcus aureus ECL 2963646 (VRSA)) was 5.07 Log CFU/Skin and 5.72 Log CFU/Skin and 5.58 Log CFU/Skin and 5.64 Log CFU/Skin and 4.16 Log CFU/Skin; in data set [3] (Staphylococcus aureus Mu50 ATCC 700699 (VISA)) it was 3.89 Log CFU/Skin and 4.45 Log CFU/Skin and 5.25 Log CFU/Skin and 3.85 Log CFU/Skin and 4.43 Log CFU/Skin.
On to `CC(=O)O[C@H]1C[C@@]2(C)[C@@H](C[C@@H](O)[C@H]3[C@@]4(C)CC[C@@H](O)[C@@H](C)[C@@H]4CC[C@@]32C)/C1=C(\CCC=C(C)C)C(=O)O` [fusidic acid], for which the “Log CFU/Skin” value in data set [3] (Staphylococcus aureus USA300 (MRSA)) was 4.49 Log CFU/Skin and 5.07 Log CFU/Skin and 4.98 Log CFU/Skin and 4.68 Log CFU/Skin and 3.36 Log CFU/Skin. For the same compound, the Time-kill bacterial count in data set [2] (time 0 hour) turned out to be 2.80E+05; in data set [2] (time 3 hour) it was 7.80E+04; in data set [2] (time 6 hour), 5.60E+04; in data set [2] (time 12 hour), 1.40E+04; in data set [2] (time 18 hour) it was 3.40E+03; in data set [2] (time 24 hour) it was 1.40E+03. Besides, in data set [2] (time 48 hour), the Time-kill bacterial count came out at 1.70E+04. In addition, the Colony numbers in data set [2] (time 0 h, Dilution 100) was 145 and 132 and 137; in data set [2] (time 3 h, Dilution 100) it was 47 and 39 and 31; in data set [2] (time 6 h, Dilution 100), 31 and 21 and 32; in data set [2] (time 12 h, Dilution 10), 81 and 58 and 73; in data set [2] (time 18 h, Dilution 1), 223 and 160 and 130; in data set [2] (time 24 h, Dilution 0.5), 163 and 86 and 158. Further, the “regrowth of S. aureus populations” value in data set [2] (within 48 hours, 10× MIC, in words) is listed as “regrowth was observable”.

(Values after paper PMC7561186, “Rational design of balanced dual-targeting antibiotics with limited resistance” (PLoS Biology, 2020).)
